Read-outs that look alike come from different tables or passages of the source.
Tests used:
[1] = molecular target: human wild type STING (WT STING) (Homo sapiens, UniProt Q86WV6, H232R); test: 293T WT STING standard reporter assay; assay type: cell-based; conditions: standard reporter assay without digitonin, 7 hours, ISRE firefly luciferase
[2] = test system: peripheral blood mononuclear cell (PBMC); test: Peripheral blood mononuclear cell assay; conditions: compounds 1h, washed, 15 hour incubation, average of one to four donors
Experimental: Selected compounds were tested in an in vitro peripheral blood mononuclear cell (PBMC) assay. […] Serially diluted tested compounds were added to wells in 50 μl of cultivation medium and cells were incubated with the compounds for 1h at 37° C. with 5% CO2. Plates with cells were then spun 500 g for 5 minutes and the medium was removed. Cells were washed twice with the cell culture medium by the use of centrifugation and gently resuspended in 100 μl medium without compounds. After 15 hour incubation at 37° C. with 5% CO2, the cell culture medium was collected and the levels of interferon-alpha (INF-α), interferon-gamma (INF-γ) and tumor necrosis factor-alpha (TNF-α) were determined with ProcartaPlex Assays (ThermoFisher, Waltham, USA) and MAGPIX System (Merck KGaA, Darmstadt, Germany). […] Values reported are an average of runs from one to four donors.

[3] = 293T WT STING EC50, 293T wtSTING-FL cells

Chain of human wild type STING (WT STING) (Q86WV6 whole entry H232R): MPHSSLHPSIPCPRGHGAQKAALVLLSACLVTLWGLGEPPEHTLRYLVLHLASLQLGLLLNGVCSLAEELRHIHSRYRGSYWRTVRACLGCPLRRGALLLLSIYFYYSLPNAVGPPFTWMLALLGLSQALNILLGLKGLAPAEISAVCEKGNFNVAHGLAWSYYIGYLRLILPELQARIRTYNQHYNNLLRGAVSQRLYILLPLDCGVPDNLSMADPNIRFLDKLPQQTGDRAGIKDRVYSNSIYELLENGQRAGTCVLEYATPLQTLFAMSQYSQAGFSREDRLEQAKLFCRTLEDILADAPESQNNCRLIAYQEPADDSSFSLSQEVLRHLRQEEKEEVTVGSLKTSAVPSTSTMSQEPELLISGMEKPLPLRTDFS

Row | SMILES | EC50 [1, 3] [nM] | other results
1 | CCCC(=O)Oc1ccc(CSP2(=O)CO[C@H]3[C@@H](F)[C@H](n4cnc5c(N)ncnc54)O[C@@H]3COP(=O)(O)O[C@@H]3[C@H](F)[C@@H](CO2)O[C@H]3n2cnc3c(=O)[nH]c(N)nc32)cc1 (single isomer, unassigned) [Compound 48a] | 5600 | –
2 | CC(C)(C)C(=O)OCSP1(=O)CO[C@H]2[C@@H](F)[C@H](n3cnc4c(N)ncnc43)O[C@@H]2COP(=O)(SCOC(=O)C(C)(C)C)O[C@@H]2[C@H](F)[C@@H](CO1)O[C@H]2n1cnc2c(=O)[nH]c(N)nc21 (single isomer, unassigned) [Compound 55d] | 300 | –
3 | CC(C)(C)C(=O)OCSP1(=O)CO[C@H]2[C@@H](F)[C@H](n3cnc4c(N)ncnc43)O[C@@H]2COP(=O)(O)O[C@@H]2[C@H](F)[C@@H](CO1)O[C@H]2n1cnc2c(=O)[nH]c(N)nc21 (single isomer, unassigned) [Compound 41b] | 87800 | –
4 | CCCCCCCC(=O)OCSP1(=O)CO[C@H]2[C@@H](F)[C@H](n3cnc4c(N)ncnc43)O[C@@H]2COP(=O)(SCOC(=O)CCCCCCC)O[C@@H]2[C@H](F)[C@@H](CO1)O[C@H]2n1cnc2c(=O)[nH]c(N)nc21 (stereo partly drawn) [Compound 69b, {[(1S,6R,8R,9R,10R,16R,18R,19R)-18-(2-amino-6-oxo-6,9-dihydro-1H-purin-9-yl)-8-(6-amino-9H-purin-9-yl)-9,19-difluoro-13-{[(octanoyloxy)methyl]sulfanyl}-3,13-dioxo-2,4,7,11,14,17-hexaoxa-3λ^5,13λ^5-diphosphatricyclo[14.2.1.0^6,10]nonadecan-3-yl]sulfanyl}methyl octanoate] | 200 | –
5 | CC(C)(C)C(=O)OCOc1ccc(CSP2(=O)CO[C@H]3[C@@H](F)[C@H](n4cnc5c(N)ncnc54)O[C@@H]3COP(=O)(O)O[C@@H]3[C@H](F)[C@@H](CO2)O[C@H]3n2cnc3c(=O)[nH]c(N)nc32)cc1 (single isomer, unassigned) [Compound 44b] | 500 | –
6 | CC(C)(C)C(=O)OCOc1ccc(CSP2(=O)CO[C@H]3[C@@H](F)[C@H](n4cnc5c(N)ncnc54)O[C@@H]3COP(=O)(O)O[C@@H]3[C@H](F)[C@@H](CO2)O[C@H]3n2cnc3c(=O)[nH]c(N)nc32)cc1 (single isomer, unassigned) [Compound 44a] | 1900 | –
7 | CC(C)(C)C(=O)OCSP1(=O)CO[C@H]2[C@@H](F)[C@H](n3cnc4c(N)ncnc43)O[C@@H]2COP(=O)(O)O[C@@H]2[C@H](F)[C@@H](CO1)O[C@H]2n1cnc2c(=O)[nH]c(N)nc21 (single isomer, unassigned) [Compound 41a] | 10400 | –
8 | CCCCCC(=O)Oc1ccc(C(=O)Oc2ccc(CSP3(=O)CO[C@H]4[C@@H](F)[C@H](n5cnc6c(N)ncnc65)O[C@@H]4COP(=O)(O)O[C@@H]4[C@H](F)[C@@H](CO3)O[C@H]4n3cnc4c(=O)[nH]c(N)nc43)cc2)cc1 (single isomer, unassigned) [Compound 49a] | 1800 | –
9 | CCCCCCCC(=O)Oc1ccc(CSP2(=O)CO[C@H]3[C@@H](F)[C@H](n4cnc5c(N)ncnc54)O[C@@H]3COP(=O)(O)O[C@@H]3[C@H](F)[C@@H](CO2)O[C@H]3n2cnc3c(=O)[nH]c(N)nc32)cc1 (single isomer, unassigned) [Compound 45a] | 300 | –
10 | CCCCCC(=O)Oc1ccc(C(=O)Oc2ccc(CSP3(=O)CO[C@H]4[C@@H](F)[C@H](n5cnc6c(N)ncnc65)O[C@@H]4COP(=O)(O)O[C@@H]4[C@H](F)[C@@H](CO3)O[C@H]4n3cnc4c(=O)[nH]c(N)nc43)cc2)cc1 (single isomer, unassigned) [Compound 49b] | 4500 | –
11 | CC(C)(C)C(=O)OCOP1(=O)CO[C@H]2[C@@H](F)[C@H](n3cnc4c(N)ncnc43)O[C@@H]2COP(=O)(OCOC(=O)C(C)(C)C)O[C@@H]2[C@H](F)[C@@H](CO1)O[C@H]2n1cnc2c(N)ncnc21 (single isomer, unassigned) [Compound 81c] | – | EC50 ([1]; 293T wtSTING-FL cells, read-out: 293T WT STING EC50): 140 nM
12 | CCCCCC(=O)Oc1ccc(CSP2(=O)CO[C@H]3[C@@H](F)[C@H](n4cnc5c(N)ncnc54)O[C@@H]3COP(=O)(O)O[C@@H]3[C@H](F)[C@@H](CO2)O[C@H]3n2cnc3c(=O)[nH]c(N)nc32)cc1 (single isomer, unassigned) [Compound 42a] | 300 | –
13 | CCCCCC(=O)Oc1ccc(CSP2(=O)CO[C@H]3[C@@H](F)[C@H](n4cnc5c(N)ncnc54)O[C@@H]3COP(=O)(O)O[C@@H]3[C@H](F)[C@@H](CO2)O[C@H]3n2cnc3c(=O)[nH]c(N)nc32)cc1 (single isomer, unassigned) [Compound 42b] | 200 | –
14 | CCCCCCCCCC(=O)Oc1ccc(CSP2(=O)CO[C@H]3[C@@H](F)[C@H](n4cnc5c(N)ncnc54)O[C@@H]3COP(=O)(O)O[C@@H]3[C@H](F)[C@@H](CO2)O[C@H]3n2cnc3c(=O)[nH]c(N)nc32)cc1 (single isomer, unassigned) [Compound 46b] | – | EC50 ([1]; read-out: 293T WT STING EC50, 293T wtSTING-FL cells): 60 nM
15 | CSP1(=O)CO[C@H]2[C@@H](F)[C@H](n3cnc4c(N)ncnc43)O[C@@H]2COP(=O)(SC)O[C@@H]2[C@H](F)[C@@H](CO1)O[C@H]2n1cnc2c(=O)[nH]c(N)nc21 (stereo partly drawn) [Compound 52c, (1S,6R,8R,9R,10R,16R,18R,19R)-18-(2-amino-6-oxo-6,9-dihydro-1H-purin-9-yl)-8-(6-amino-9H-purin-9-yl)-9,19-difluoro-3,13-bis(methylsulfanyl)-2,4,7,11,14,17-hexaoxa-3λ^5,13λ^5-diphosphatricyclo[14.2.1.0^6,10]nonadecane-3,13-dione] | > 20000 | –
16 | CCCC(=O)Oc1ccc(CSP2(=O)CO[C@H]3[C@@H](F)[C@H](n4cnc5c(N)ncnc54)O[C@@H]3COP(=O)(O)O[C@@H]3[C@H](F)[C@@H](CO2)O[C@H]3n2cnc3c(=O)[nH]c(N)nc32)cc1 (single isomer, unassigned) [Compound 48b] | 3400 | –
17 | CC(C)(C)C(=O)Oc1ccc(CSP2(=O)CO[C@H]3[C@@H](F)[C@H](n4cnc5c(N)ncnc54)O[C@@H]3COP(=O)(O)O[C@@H]3[C@H](F)[C@@H](CO2)O[C@H]3n2cnc3c(=O)[nH]c(N)nc32)cc1 (single isomer, unassigned) [Compound 43b] | 3100 | –
18 | CCCCCCCCCCCC(=O)OCSP1(=O)CO[C@H]2[C@@H](F)[C@H](n3cnc4c(N)ncnc43)O[C@@H]2COP(=O)(O)O[C@@H]2[C@H](F)[C@@H](CO1)O[C@H]2n1cnc2c(=O)[nH]c(N)nc21 (single isomer, unassigned) [Compound 76b] | 30 | –
19 | CCCCCCCCCCCC(=O)Oc1ccc(CSP2(=O)CO[C@H]3[C@@H](F)[C@H](n4cnc5c(N)ncnc54)O[C@@H]3COP(=O)(O)O[C@@H]3[C@H](F)[C@@H](CO2)O[C@H]3n2cnc3c(=O)[nH]c(N)nc32)cc1 (single isomer, unassigned) [Compound 47b] | 90 | –
20 | CCCCCCCCCCCCCCCCCCOC(=O)OCSP1(=O)OC[C@H]2O[C@@H](n3cnc4c(N)ncnc43)[C@H](F)[C@@H]2OCP(=O)(O)OC[C@H]2O[C@@H](n3cnc4c(=O)[nH]cnc43)[C@H](O1)[C@@H]2F (stereo partly drawn) [Compound 74b, {[(1S,6R,8R,9R,10R,16R,18R,19R)-8-(6-amino-9H-purin-9-yl)-9,19-difluoro-13-hydroxy-3,13-dioxo-18-(6-oxo-6,9-dihydro-1H-purin-9-yl)-2,4,7,11,14,17-hexaoxa-3λ^5,13λ^5-diphosphatricyclo[14.2.1.0^6,10]nonadecan-3-yl]sulfanyl}methyl octadecyl carbonate] | – | EC50 ([2]; read-out: PBMC EC50 IFN-α, interferon-alpha level in medium): 2200 nM; EC50 ([2]; read-out: PBMC EC50 IFN-γ, interferon-gamma level in medium): 2400 nM; EC50 ([2]; read-out: PBMC EC50 TNF-α, tumor necrosis factor-alpha level in medium): 3000 nM

Reference: patent publication US12318403B2, “2′3′-cyclic dinucleotides and prodrugs thereof” (INSTITUTE OF ORGANIC CHEMISTRY AND BIOCHEMISTRY ASCR, V.V.I., priority 2019, dated 2025)
